Reference: patent publication US11389455B2, “Inhibitors of HIV-1 integrase multimerization” (Institute for Cancer Research, priority 2017, dated 2022)
Where two headings read alike, the source gives them in different places.

Columns and labels:
[1] = molecular target: T1, HIV IN (Wild-type monomer) (Human immunodeficiency virus type 1 group M subtype B, UniProt P04585); format: biochemical, HIV-1; conditions: for I.I.(K Counts) CI/SI: ratio concerted/single end integration counts
T1 construct: 1 uM HIV IN (Wild-type monomer)

[2] = molecular target: T2, Avian Sarcoma Virus integrase (UniProt P03354); assay: Specificity: single end and concerted integration in vitro, ASV integrase; format: biochemical; conditions: Table 6
T2 sequence (P03354 1281-1567): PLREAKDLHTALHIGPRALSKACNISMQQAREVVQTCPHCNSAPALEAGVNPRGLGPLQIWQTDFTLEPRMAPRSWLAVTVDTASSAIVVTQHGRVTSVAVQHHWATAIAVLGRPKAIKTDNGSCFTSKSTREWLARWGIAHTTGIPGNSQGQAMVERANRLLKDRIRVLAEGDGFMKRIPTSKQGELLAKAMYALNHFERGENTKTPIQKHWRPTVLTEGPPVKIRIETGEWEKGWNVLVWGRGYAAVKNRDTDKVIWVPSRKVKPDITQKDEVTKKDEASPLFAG

[3] = system: Envelope pseudotyped virus particles infecting HeLa cells; assay: Inhibition of infectivity, single round GFP reporter virus, percent GFP positive cells; conditions: read-out: Infectivity EC50
[4] = system: HeLa cells; assay: Cell toxicity during the infection experiment (Tox/Infect), 24 hours exposure; conditions: only 24 hours of exposure
[5] = molecular target: Prototype Foamy Virus (PFV) integrase (Human spumaretrovirus, UniProt P14350); assay: Specificity: single end and concerted integration in vitro, PFV integrase; format: biochemical; conditions: Table 6
[6] = system: HeLa cells
[7] = Table 5, concerted integration, read-out: Concerted IC50
[8] = Table 5, single-end integration, read-out: Single End IC50
[9] = Table 6, read-out: HIV Concerted IC50
[10] = Table 6, read-out: HIV Single End IC50
[11] = HeLa cells, compound exposure for 3 days, preliminary
[12] = Table 1, cross validation assay at compound concentration of 10 uM

In the case of `O=C(CCCCCNc1ccc([N+](=O)[O-])c2nonc12)ON1C(=O)CCC1=O` [II-4], the IC50 [1, 7] is reported as 16 µM, the IC50 [1, 8] is reported as 71 µM and the IC50 [1, 9] is reported as 16 µM. The IC50 [1, 10] was 65 µM, the IC50 ([2]; read-out: ASV Concerted IC50) was 53 µM and the IC50 ([2]; read-out: ASV Single End IC50) was 175 µM. For the same compound, the EC50 [3] was 5 µM, the “Tox/Infect LD50” value [4] was greater than 20 µM and the IC50 ([5]; read-out: PFV Concerted IC50) was greater than 390 µM. For the same compound, the IC50 ([5]; read-out: PFV Single End IC50) was greater than 350 µM and the “Toxicity LD50” value [6, 11] was greater than 50 µM.

`CCc1ccc(-c2nc3c(=O)n(C)c(=O)nc-3n(CC)n2)cc1` [Formula I-13] was tested, and the “Relative % concerted integration” value [1] was 7.07% (IC50 of 0.27 μM), the IC50 ([1]; Concerted IC50) was 0.27 µM and the IC50 ([1]; IC50 (concerted integration)) was 0.27 µM. For the same compound, the IC50 ([1]; Single End IC50) was 1.4 µM and the “Toxicity LD50” value ([6]; human, 3 days) was 3.2 µM.

For `Cn1nc(/C=C\c2ccccc2)nc2c(=O)n(C)c(=O)nc1-2` [Formula I-11], the “Relative % concerted integration” value [1, 12] was 1.76%.

In the case of `O=C(O)CCCCCNc1ccc([N+](=O)[O-])c2nonc12` [II-2], the IC50 ([1]; Concerted IC50) is reported as 500 µM, the IC50 ([1]; Single End IC50) is reported as greater than 1000 µM and the “Toxicity LD50” value [6, 11] is reported as greater than 50 µM.

Compound `Cc1nnc(C(=O)NC(C)(C)c2nc(C(=O)NCc3ccc(F)cc3)c(O)c(=O)n2C)o1` [RAL, Raltegravir, reference compound] has an IC50 ([2]; read-out: ASV Concerted IC50) of 0.6 µM, an IC50 ([2]; read-out: ASV Single End IC50) of 22 µM and an EC50 [3] of 0.05 µM. For the same compound, the “Tox/Infect LD50” value [4] was greater than 10 µM, the IC50 ([5]; read-out: PFV Concerted IC50) was 1 µM and the IC50 ([5]; read-out: PFV Single End IC50) was less than 10 µM. The “Toxicity LD50” value [6, 11] was greater than 20 µM.

In the case of `CCn1nc(-c2cccs2)nc2c(=O)n(C)c(=O)nc1-2` [Formula I-3], the “Relative % concerted integration” value [1, 12] is reported as 2.07%.

`Cn1nc(-c2ccc(F)cc2)nc2c(=O)n(C)c(=O)nc1-2` [Formula I-8] was tested, and the “Relative % concerted integration” value [1, 12] was 0.42%.

For `CCCc1nc2c(=O)n(C)c(=O)nc-2n(C)n1` [Formula I-7], the “Relative % concerted integration” value [1, 12] was 0.07%.

With `Cn1ncnc2c(=O)n(C)c(=O)nc1-2` [Formula I-1] the “Relative % concerted integration” value [1, 12] was 3.84%, the IC50 ([1]; Table 1, read-out: IC50 (concerted integration)) was 0.2 µM and the activity at 0.001 µM ([1]; Table 4, Form F3 (concerted integration), 0.001 uM, read-out: Rel % Activity) was 99.6%. The activity at 0.005 µM ([1]; Table 4, Form F3 (concerted integration), 0.005 uM, read-out: Rel % Activity) was 83.8%, the activity at 0.01 µM ([1]; Table 4, Form F3 (concerted integration), 0.01 uM, read-out: Rel % Activity) was 92.4% and the activity at 0.05 µM ([1]; Table 4, Form F3 (concerted integration), 0.05 uM, read-out: Rel % Activity) was 78.2%. For the same compound, the activity at 0.1 µM ([1]; Table 4, Form F3 (concerted integration), 0.1 uM, read-out: Rel % Activity) was 75.3%, the activity at 0.5 µM ([1]; Table 4, Form F3 (concerted integration), 0.5 uM, read-out: Rel % Activity) was 17.4% and the activity at 1 µM ([1]; Table 4, Form F3 (concerted integration), 1 uM, read-out: Rel % Activity) was 6.42%. For the same compound, the activity at 5 µM ([1]; Table 4, Form F3 (concerted integration), 5 uM, read-out: Rel % Activity) was 0.705%, the activity at 10 µM ([1]; Table 4, Form F3 (concerted integration), 10 uM, read-out: Rel % Activity) was 0.419% and the activity at 50 µM ([1]; Table 4, Form F3 (concerted integration), 50 uM, read-out: Rel % Activity) was 0.366%. It also gave an activity at 100 µM ([1]; Table 4, Form F3 (concerted integration), 100 uM, read-out: Rel % Activity) of 0.453%, an activity at 500 µM ([1]; Table 4, Form F3 (concerted integration), 500 uM, read-out: Rel % Activity) of 0.433% and an activity at 1000 µM ([1]; Table 4, Form F3 (concerted integration), 1000 uM, read-out: Rel % Activity) of 1.34%. It also gave an IC50 [1, 7] of 0.2 µM, an IC50 [1, 8] of 1.25 µM and an IC50 [1, 9] of 0.2 µM. The IC50 [1, 10] was 1.25 µM, the “I.I.(K Counts) CI/SI” value ([1]; 0.001 uM) was 1.336 and the “I.I.(K Counts) CI/SI” value ([1]; 0.005 uM) was 1.067. For the same compound, the “I.I.(K Counts) CI/SI” value ([1]; 0.01 uM) was 1.193, the “I.I.(K Counts) CI/SI” value ([1]; 0.05 uM) was 1.007 and the “I.I.(K Counts) CI/SI” value ([1]; 0.1 uM) was 0.978. The “I.I.(K Counts) CI/SI” value ([1]; 0.5 uM) was 0.331, the “I.I.(K Counts) CI/SI” value ([1]; 1 uM) was 0.159 and the “I.I.(K Counts) CI/SI” value ([1]; 5 uM) was 0.034. The “I.I.(K Counts) CI/SI” value ([1]; 10 uM) was 0.022, the “I.I.(K Counts) CI/SI” value ([1]; 50 uM) was 0.020 and the “I.I.(K Counts) CI/SI” value ([1]; 100 uM) was 0.026. For the same compound, the “I.I.(K Counts) CI/SI” value ([1]; 500 uM) was 0.033, the “I.I.(K Counts) CI/SI” value ([1]; 1000 uM) was 0.107 and the activity at 0.005 µM ([1]; read-out: Rel % Activity) was 106%. The IC50 ([2]; read-out: ASV Concerted IC50) was greater than 100 µM, the IC50 ([2]; read-out: ASV Single End IC50) was greater than 100 µM and the EC50 [3] was 0.3 µM. The “Tox/Infect LD50” value [4] was greater than 5 µM, the IC50 ([5]; read-out: PFV Concerted IC50) was greater than 1000 µM and the IC50 ([5]; read-out: PFV Single End IC50) was greater than 1000 µM. For the same compound, the “Toxicity LD50” value [6, 11] was 0.43 µM.

For `CCn1nc(-c2ccccn2)nc2c(=O)n(C)c(=O)nc1-2` [Formula I-2], the “Relative % concerted integration” value [1, 12] was 6.33%.

In the case of `CCn1nc(-c2cc(Br)ccc2F)nc2c(=O)n(C)c(=O)nc1-2` [Formula I-4], the “Relative % concerted integration” value [1, 12] is reported as 0.26%.

In the case of `CCn1nc(-c2cc(Br)cs2)nc2c(=O)n(C)c(=O)nc1-2` [Formula I-6], the “Relative % concerted integration” value [1, 12] is reported as 1.72%.

With `Cn1nc(-c2ccccc2)nc2c(=O)n(C)c(=O)nc1-2` [Formula I-9] the “Relative % concerted integration” value [1, 12] was 2.73%.

For `CCn1nc(-c2ccc(C(F)(F)F)cc2)nc2c(=O)n(C)c(=O)nc1-2` [Formula I-5], the “Relative % concerted integration” value [1, 12] was 0.72%.

With `Cn1nc(-c2ccc(C(F)(F)F)cc2)nc2c(=O)n(C)c(=O)nc1-2` [Formula I-10] the “Relative % concerted integration” value [1, 12] was 1.56%.

`Nc1ccc(N2CCCCC2)c2nonc12` [II-3] was tested, and the IC50 ([1]; Concerted IC50) was 15 µM, the IC50 ([1]; Single End IC50) was greater than 1000 µM and the “Toxicity LD50” value ([6]; human, 3 days) was 25 µM.

For `Cn1nc(-c2ccc([N+](=O)[O-])cc2)nc2c(=O)n(C)c(=O)nc1-2` [Formula I-12], the “Relative % concerted integration” value [1, 12] was 3.26%.
